pIC50: −log10 of the molar value.
Biological target: T1, human HSL (Homo sapiens, UniProt Q05469)
T1 construct: generate a full length human HSL ORF with a 3′-His6 tag; made in house; host or cells: High 5 insect cells (baculovirus, pFast-BAC)
T1 sequence (Q05469 1-1076): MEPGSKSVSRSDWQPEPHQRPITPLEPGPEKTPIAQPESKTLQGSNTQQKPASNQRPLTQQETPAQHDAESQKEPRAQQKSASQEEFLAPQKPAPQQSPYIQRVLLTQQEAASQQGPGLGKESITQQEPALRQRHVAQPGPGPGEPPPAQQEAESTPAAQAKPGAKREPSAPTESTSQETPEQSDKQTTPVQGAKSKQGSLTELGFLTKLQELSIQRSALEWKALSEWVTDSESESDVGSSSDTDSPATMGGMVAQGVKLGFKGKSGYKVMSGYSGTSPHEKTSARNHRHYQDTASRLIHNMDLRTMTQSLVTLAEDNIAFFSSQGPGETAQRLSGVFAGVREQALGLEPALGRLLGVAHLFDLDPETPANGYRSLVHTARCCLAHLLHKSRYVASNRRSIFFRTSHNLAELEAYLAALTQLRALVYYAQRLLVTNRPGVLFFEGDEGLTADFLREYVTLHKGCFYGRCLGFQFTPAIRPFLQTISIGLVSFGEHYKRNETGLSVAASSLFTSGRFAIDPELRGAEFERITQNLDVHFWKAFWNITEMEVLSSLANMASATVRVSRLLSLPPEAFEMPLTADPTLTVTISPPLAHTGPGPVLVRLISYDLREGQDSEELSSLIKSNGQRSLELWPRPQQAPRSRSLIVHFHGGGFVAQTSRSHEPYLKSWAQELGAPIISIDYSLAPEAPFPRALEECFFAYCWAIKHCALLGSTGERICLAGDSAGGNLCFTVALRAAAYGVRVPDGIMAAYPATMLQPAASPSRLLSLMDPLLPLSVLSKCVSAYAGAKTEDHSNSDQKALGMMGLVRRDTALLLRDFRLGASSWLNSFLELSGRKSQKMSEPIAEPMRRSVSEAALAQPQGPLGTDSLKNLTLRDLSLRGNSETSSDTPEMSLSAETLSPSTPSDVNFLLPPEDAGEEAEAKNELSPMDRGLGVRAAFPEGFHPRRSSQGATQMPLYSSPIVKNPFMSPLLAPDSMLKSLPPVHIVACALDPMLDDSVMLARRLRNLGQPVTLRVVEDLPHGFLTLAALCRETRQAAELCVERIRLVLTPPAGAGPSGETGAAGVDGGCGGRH
Experiment: Human Hormone-Sensitive Lipase (HSL) enzyme inhibition assay (colorimetric, DMPT substrate)
Type: biochemical
Conditions: human full length HSL-His6, 2,3-dimercapto-1-propanol tributyrate substrate, 37° C. 20 minutes, absorbance at 405 nm; read-out: HSL hum IC50
Outline: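 Full-length human HSL with C-terminal His6, expressed in baculovirus-infected High 5 cells and Ni-NTA purified, was added (15 ug/ml stock) to 1.5 mM DMPT in 100 mM MOPS pH 7.2, 0.2 mg/ml fatty acid-free BSA containing compound. After 20 min at 37 °C, DTNB with SDS/Triton X-100 was added; A405 read after 15 min at RT.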

Structure (SMILES)	pIC50
CCOC[C@]1(O)CC[C@]2(CCN(c3ccc(O[C@@H](C)C(F)(F)F)cc3)C2=O)CC1 [Example 251, (5α,8α)-8-Ethoxymethyl-8-hydroxy-2-[4-((S)-2,2,2-trifluoro-1-methyl-ethoxy)-phenyl]-2-aza-spiro[4.5]decan-1-one]	8.00
CCOC[C@]1(O)CC[C@@]2(CCN(c3ccc(O[C@H](C)C(F)(F)F)cc3)C2=O)CC1 [Example 252, (5α,8β)-8-Ethoxymethyl-8-hydroxy-2-[4-((R)-2,2,2-trifluoro-1-methyl-ethoxy)-phenyl]-2-aza-spiro[4.5]decan-1-one]	6.64
CCOC[C@]1(O)CC[C@]2(CCN(c3ccc(O[C@H](C)C(F)(F)F)cc3)C2=O)CC1 [Example 253, (5α,8α)-8-Ethoxymethyl-8-hydroxy-2-[4-((R)-2,2,2-trifluoro-1-methyl-ethoxy)-phenyl]-2-aza-spiro[4.5]decan-1-one]	7.70
O=C1N(c2ccc(OCC(F)(F)F)cc2)CC[C@]12CC[C@](O)(COCC1CCC1)CC2 [Example 254, (5α,8β)-8-[(Cyclobutylmethoxy)methyl]-8-hydroxy-2-[4-(2,2,2-trifluoro-ethoxy)-phenyl]-2-aza-spiro[4.5]decan-1-one]	6.39
O=C1N(c2ccc(OCC(F)(F)F)cc2)CC[C@]12CC[C@@](O)(COCC1CCC1)CC2 [Example 255, (5α,8α)-8-[(Cyclobutylmethoxy)methyl]-8-hydroxy-2-[4-(2,2,2-trifluoro-ethoxy)-phenyl]-2-aza-spiro[4.5]decan-1-one]	8.00
O=C1N(c2ccc(OCC(F)(F)F)cc2)CC[C@]12CC[C@](O)(COCC1CC1)CC2 [Example 256, (5α,8β)-8-[(Cyclopropylmethoxy)methyl]-8-hydroxy-2-[4-(2,2,2-trifluoro-ethoxy)-phenyl]-2-aza-spiro[4.5]decan-1-one]	6.16
O=C1N(c2ccc(OCC(F)(F)F)cc2)CC[C@]12CC[C@@](O)(COCC1CC1)CC2 [Example 257, (5α,8α)-8-[(Cyclopropylmethoxy)methyl]-8-hydroxy-2-[4-(2,2,2-trifluoro-ethoxy)-phenyl]-2-aza-spiro[4.5]decan-1-one]	8.00
COC[C@]1(O)CC[C@]2(CCN(c3ccc(OCC(F)(F)F)cc3)C2=O)CC1 [Example 258, (5α,8α)-8-Hydroxy-8-methoxymethyl-2-[4-(2,2,2-trifluoro-ethoxy)-phenyl]-2-aza-spiro[4.5]decan-1-one]	7.15
O=C1N(c2ccc(OCC(F)(F)F)cc2)CC[C@]12CC[C@@](O)(COCC1CCO1)CC2 (stereo partly drawn) [Example 259, (5α,8α)-8-Hydroxy-8-(oxetan-2-ylmethoxymethyl)-2-[4-(2,2,2-trifluoro-ethoxy)-phenyl]-2-aza-spiro[4.5]decan-1-one]	7.10
CC1(COC[C@]2(O)CC[C@]3(CCN(c4ccc(OCC(F)(F)F)cc4)C3=O)CC2)COC1 [Example 260, (5α,8α)-8-Hydroxy-8-(3-methyl-oxetan-3-ylmethoxymethyl)-2-[4-(2,2,2-trifluoro-ethoxy)-phenyl]-2-aza-spiro[4.5]decan-1-one]	7.22
CCSC[C@]1(O)CC[C@]2(CCN(c3ccc(OCC(F)(F)F)cc3)C2=O)CC1 [Example 261, (5α,8α)-8-Ethylsulfanylmethyl-8-hydroxy-2-[4-(2,2,2-trifluoro-ethoxy)-phenyl]-2-aza-spiro[4.5]decan-1-one]	8.00
O=C1N(c2ccc(OCC(F)(F)F)cc2)CC[C@]12CC[C@@](O)(COc1cccc(F)c1)CC2 [Example 262, (5α,8α)-8-(3-Fluoro-phenoxymethyl)-8-hydroxy-2-[4-(2,2,2-trifluoro-ethoxy)-phenyl]-2-aza-spiro[4.5]decan-1-one]	7.15
O=C1N(c2ccc(OCC(F)(F)F)cc2)CC[C@]12CC[C@@](O)(COc1ccc(F)cc1)CC2 [Example 263, (5α,8α)-8-(4-Fluoro-phenoxymethyl)-8-hydroxy-2-[4-(2,2,2-trifluoro-ethoxy)-phenyl]-2-aza-spiro[4.5]decan-1-one]	7.70
CCc1ccc(N2CC[C@]3(CC[C@](O)(COCC(F)F)CC3)C2=O)cc1 [Example 264, (5α,8β)-8-(2,2-Difluoro-ethoxymethyl)-2-(4-ethyl-phenyl)-8-hydroxy-2-aza-spiro[4.5]decan-1-one]	6.70
CCc1ccc(N2CC[C@]3(CC[C@@](O)(COCC(F)F)CC3)C2=O)cc1 [Example 265, (5α,8α)-8-(2,2-Difluoro-ethoxymethyl)-2-(4-ethyl-phenyl)-8-hydroxy-2-aza-spiro[4.5]decan-1-one]	7.40
CCCOC[C@]1(O)CC[C@@]2(CCN(c3ccc(OCC(F)(F)F)nc3)C2=O)CC1 [Example 266, (5α,8β)-8-Hydroxy-8-propoxymethyl-2-[6-(2,2,2-trifluoro-ethoxy)-pyridin-3-yl]-2-aza-spiro[4.5]decan-1-one]	6.43
CCCOC[C@]1(O)CC[C@]2(CCN(c3ccc(OCC(F)(F)F)nc3)C2=O)CC1 [Example 267, (5α,8α)-8-Hydroxy-8-propoxymethyl-2-[6-(2,2,2-trifluoro-ethoxy)-pyridin-3-yl]-2-aza-spiro[4.5]decan-1-one]	7.52
CCCOC[C@]1(O)CC[C@]2(CCN(c3ccc(O[C@@H](C)C(F)(F)F)nc3)C2=O)CC1 [Example 268, (5α,8α)-8-Hydroxy-8-propoxymethyl-2-[6-((S)-2,2,2-trifluoro-1-methyl-ethoxy)-pyridin-3-yl]-2-aza-spiro[4.5]decan-1-one]	7.70
CCCOC[C@]1(O)CC[C@]2(CCN(c3ccc(O[C@@H](C)C(F)(F)F)cc3)C2=O)CC1 [Example 269, (5α,8α)-8-Hydroxy-8-propoxymethyl-2-[4-((S)-2,2,2-trifluoro-1-methyl-ethoxy)-phenyl]-2-aza-spiro[4.5]decan-1-one]	8.00
CCCOC[C@]1(O)CC[C@]2(CCN(c3ccc(O[C@H](C)C(F)(F)F)cc3)C2=O)CC1 [Example 270, (5α,8α)-8-Hydroxy-8-propoxymethyl-2-[4-((R)-2,2,2-trifluoro-1-methyl-ethoxy)-phenyl]-2-aza-spiro[4.5]decan-1-one]	8.00
CCOC[C@]1(O)CC[C@]2(CCN(c3ccc(C4CC4)cc3)C2=O)CC1 [Example 271, (5α,8α)-2-(4-Cyclopropyl-phenyl)-8-ethoxymethyl-8-hydroxy-2-aza-spiro[4.5]decan-1-one]	7.52
CCCOC[C@]1(O)CC[C@]2(CCN(c3ccc(C4CC4)cc3)C2=O)CC1 [Example 272, (5α,8α)-2-(4-Cyclopropyl-phenyl)-8-hydroxy-8-propoxymethyl-2-aza-spiro[4.5]decan-1-one]	7.70
O=C1N(c2ccc(OCC(F)(F)F)cc2)CC[C@]12CC[C@@](O)(COCC1CCCC1)CC2 [Example 273, (5α,8α)-8-[(Cyclopentylmethoxy)methyl]-8-hydroxy-2-[4-(2,2,2-trifluoro-ethoxy)-phenyl]-2-aza-spiro[4.5]decan-1-one]	7.70
CC(C)(C)COC[C@]1(O)CC[C@]2(CCN(c3ccc(OCC(F)(F)F)cc3)C2=O)CC1 [Example 274, (5α,8α)-8-(2,2-Dimethyl-propoxymethyl)-8-hydroxy-2-[4-(2,2,2-trifluoro-ethoxy)-phenyl]-2-aza-spiro[4.5]decan-1-one]	7.70
CCS(=O)(=O)C[C@]1(O)CC[C@]2(CCN(c3ccc(OCC(F)(F)F)cc3)C2=O)CC1 [Example 275, (5α,8α)-8-Ethanesulfonylmethyl-8-hydroxy-2-[4-(2,2,2-trifluoro-ethoxy)-phenyl]-2-aza-spiro[4.5]decan-1-one]	7.10
CC(C)OC[C@]1(O)CC[C@]2(CCN(c3ccc(OCC(F)(F)F)cc3)C2=O)CC1 [Example 276, (5α,8α)-8-Hydroxy-8-isopropoxymethyl-2-[4-(2,2,2-trifluoro-ethoxy)-phenyl]-2-aza-spiro[4.5]decan-1-one]	8.00
O=C1N(c2ccc(OCC(F)(F)F)cc2)CC[C@]12CC[C@@](O)(COCCC(F)(F)F)CC2 [Example 277, (5α,8α)-8-Hydroxy-2-[4-(2,2,2-trifluoro-ethoxy)-phenyl]-8-(3,3,3-trifluoro-propoxymethyl)-2-aza-spiro[4.5]decan-1-one]	7.40

— patent publication US8440710B2, “HSL inhibitors useful in the treatment of diabetes” (Hoffmann-La Roche Inc., priority 2009, dated 2013)
